In US7670613B2, “Androgen modulators” (Pfizer Inc., priority 2004, dated 2010):
pIC50: −log10 of the molar value.

Biological target: T1, hAR (Homo sapiens, UniProt P10275)
T1 construct: made in house; host or cells: baculovirus/Sf9 insect cells
T1 sequence (P10275 1-920): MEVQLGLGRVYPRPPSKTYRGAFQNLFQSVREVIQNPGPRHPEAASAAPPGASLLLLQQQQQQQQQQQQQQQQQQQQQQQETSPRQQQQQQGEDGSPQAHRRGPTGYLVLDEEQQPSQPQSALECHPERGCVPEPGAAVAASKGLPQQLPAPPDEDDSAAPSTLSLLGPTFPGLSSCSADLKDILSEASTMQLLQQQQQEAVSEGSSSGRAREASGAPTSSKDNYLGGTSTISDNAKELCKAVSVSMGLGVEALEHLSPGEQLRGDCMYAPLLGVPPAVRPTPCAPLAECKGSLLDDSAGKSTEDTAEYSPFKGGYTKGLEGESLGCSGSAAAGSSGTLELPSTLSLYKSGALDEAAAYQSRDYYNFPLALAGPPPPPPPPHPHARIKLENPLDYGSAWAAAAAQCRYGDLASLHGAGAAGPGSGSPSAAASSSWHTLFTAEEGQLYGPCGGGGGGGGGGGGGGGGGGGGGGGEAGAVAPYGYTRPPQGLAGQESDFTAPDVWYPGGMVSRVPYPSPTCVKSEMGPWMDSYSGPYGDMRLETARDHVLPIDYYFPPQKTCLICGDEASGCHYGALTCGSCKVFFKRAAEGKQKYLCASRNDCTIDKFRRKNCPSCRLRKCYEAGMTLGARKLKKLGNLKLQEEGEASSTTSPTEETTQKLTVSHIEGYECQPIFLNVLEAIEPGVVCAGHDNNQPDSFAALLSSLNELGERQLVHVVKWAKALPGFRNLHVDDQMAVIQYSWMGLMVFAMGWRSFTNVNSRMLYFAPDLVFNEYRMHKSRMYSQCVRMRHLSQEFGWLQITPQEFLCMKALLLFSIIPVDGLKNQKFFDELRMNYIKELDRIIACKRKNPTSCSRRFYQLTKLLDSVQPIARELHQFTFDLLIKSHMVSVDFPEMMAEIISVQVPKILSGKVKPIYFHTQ
Assay: Competitive binding analysis on baculovirus/Sf9 generated hAR extracts with 3H-DHT tracer
Details: AR Binding IC50, hAR extract, 1 nM 3H-DHT, one hour at 4° C.; mean of multiple tests

SMILES	pIC50
N#Cc1ccc(O[C@@H]2CCCC[C@H]2C#N)cc1C(F)(F)F (single isomer, unassigned) [Example 72, (trans)-(−)-4-(2-Cyano-cyclohexyloxy)-2-trifluoromethyl-benzonitrile]	7.37
CC1CCCCC1Oc1ccc(C#N)c(C(F)(F)F)c1 (stereo not drawn) [Example 8, 4-(2-Methyl-cyclohexyloxy)-2-trifluoromethyl-benzonitrile]	6.97
N#Cc1ccc(O[C@@H]2CCCCC2C#N)cc1C(F)(F)F (stereo in doubt) [Example 14, -4-(2-Cyano-cyclohexyloxy)-2-trifluoromethyl-benzonitrile]	7.24
